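Dose response: 5 concentrations. Exposure: 48 h. Format: 96-well plates. Endpoint: linear interpolation; highest concentration if not reached. At the TGI there is no net growth.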
Columns and labels:
Assay in all cases: DTP human tumour cell line panel, 48 h
[1] = system: TK-10 renal
[2] = system: MDA-N
[3] = system: RXF 393 renal
[4] = system: OVCAR-4 ovarian
[5] = system: CAKI-1 renal
[6] = system: SK-MEL-5 melanoma
[7] = system: NCI-H226 lung
[8] = system: HL-60(TB) leukemia
[9] = system: MALME-3M melanoma
[10] = system: A549 NSCLC
[11] = system: NCI-H460 lung
[12] = system: SF-268 CNS
[13] = system: NCI-H522 lung
[14] = system: BT-549 breast
[15] = system: SK-MEL-28 melanoma
[16] = system: LOX IMVI melanoma
[17] = system: MCF7 breast
[18] = system: NCI/ADR-RES ovarian
[19] = system: SW-620 colon
[20] = system: OVCAR-8 ovarian
[21] = system: EKVX NSCLC
[22] = system: HT29 colon
[23] = system: T-47D breast
[24] = system: UACC-257 melanoma
[25] = system: SNB-75 CNS
[26] = system: SN12C renal
[27] = system: HCT-116 colon
[28] = system: HOP-62 NSCLC
[29] = system: OVCAR-5 ovarian
[30] = system: DU-145 prostate
[31] = system: COLO 205 colon
[32] = system: HS 578T breast
[33] = system: UO-31 renal
[34] = system: KM12 colon
[35] = system: M14 melanoma
[36] = system: MOLT-4 leukemia
[37] = system: SK-MEL-2 melanoma
[38] = system: U251 CNS
[39] = system: MDA-MB-435
[40] = system: MDA-MB-231 breast
[41] = system: 786-0 renal
[42] = system: UACC-62 melanoma
[43] = system: K-562 leukemia
[44] = system: NCI-H23 lung
[45] = system: ACHN renal
[46] = system: HOP-92 NSCLC
[47] = system: PC-3 prostate
[48] = system: CCRF-CEM leukemia
[49] = system: A498 renal
[50] = system: SF-295 CNS
[51] = system: SF-539 CNS
[52] = system: SK-OV-3 ovarian
[53] = system: SNB-19 CNS
[54] = system: HCT-15 colon
[55] = system: SR leukemia
[56] = system: OVCAR-3 ovarian
[57] = system: HCC-2998 colon
[58] = system: RPMI-8226 leukemia
[59] = system: IGROV1 ovarian

## COc1cccc(N2C(=O)CS(=O)(=O)C2c2cccc(Oc3ccccc3)c2)c1 (stereo not given)
[1]
  TGI: 47.4 µM
[2]
  TGI: 6.45 µM
[3]
  TGI: 71.1 µM
[4]
  TGI: > 100 µM
[5]
  TGI: > 100 µM
[6]
  TGI: 22.6 µM
[7]
  TGI: 76.7 µM
[8]
  TGI: > 100 µM
[9]
  TGI: 69.8 µM
[10]
  TGI: > 100 µM
[11]
  TGI: 31.1 µM
[12]
  TGI: > 100 µM
[13]
  TGI: 37.6 µM
[14]
  TGI: 61.4 µM
[15]
  TGI: > 100 µM
[16]
  TGI: 51.1 µM
[17]
  TGI: 10.6 µM
[18]
  TGI: 77.3 µM
[19]
  TGI: > 100 µM
[20]
  TGI: 77.2 µM
[21]
  TGI: 59.3 µM
[22]
  TGI: 89.3 µM
[23]
  TGI: 81.1 µM
[24]
  TGI: 44.1 µM
[25]
  TGI: 84.5 µM
[26]
  TGI: 38.2 µM
[27]
  TGI: 24.7 µM
[28]
  TGI: > 100 µM
[29]
  TGI: > 100 µM
[30]
  TGI: > 100 µM
[31]
  TGI: 42.4 µM
[32]
  TGI: 70 µM
[33]
  TGI: > 100 µM
[34]
  TGI: > 100 µM
[35]
  TGI: 89.7 µM
[36]
  TGI: 57.6 µM
[37]
  TGI: 38.8 µM
[38]
  TGI: 49.7 µM
[39]
  TGI: > 100 µM
[40]
  TGI: > 100 µM
[41]
  TGI: 44.4 µM
[42]
  TGI: 24.7 µM
[43]
  TGI: 19.5 µM
[44]
  TGI: > 100 µM
[45]
  TGI: 60.2 µM
[46]
  TGI: 68.5 µM
[47]
  TGI: 85.8 µM
[48]
  TGI: > 100 µM
[49]
  TGI: 36.7 µM
[50]
  TGI: > 100 µM
[51]
  TGI: 38.4 µM
[52]
  TGI: > 100 µM
[53]
  TGI: > 100 µM
[54]
  TGI: > 100 µM
[55]
  TGI: 13.1 µM
[56]
  TGI: > 100 µM

## CC1CCc2sc3nc4n(c(=O)c3c2C1)CC(C)S4 (stereo not given)
[1]
  TGI: 98.7 µM
[2]
  TGI: 92.8 µM
[3]
  TGI: 55.2 µM
[4]
  TGI: > 100 µM
[5]
  TGI: > 100 µM
[6]
  TGI: 34.4 µM
[7]
  TGI: 63.8 µM
[9]
  TGI: 65.8 µM
[10]
  TGI: 70.5 µM
[11]
  TGI: 65.2 µM
[12]
  TGI: > 100 µM
[13]
  TGI: > 100 µM
[14]
  TGI: > 100 µM
[15]
  TGI: 83.1 µM
[16]
  TGI: 39.8 µM
[17]
  TGI: 52.5 µM
[18]
  TGI: > 100 µM
[19]
  TGI: > 100 µM
[20]
  TGI: > 100 µM
[21]
  TGI: 70.4 µM
[22]
  TGI: 33.4 µM
[23]
  TGI: > 100 µM
[24]
  TGI: 50.9 µM
[25]
  TGI: 62.4 µM
[26]
  TGI: 53.7 µM
[27]
  TGI: 67.7 µM
[28]
  TGI: > 100 µM
[29]
  TGI: 92.7 µM
[57]
  TGI: 42 µM
[30]
  TGI: > 100 µM
[31]
  TGI: 39.3 µM
[32]
  TGI: > 100 µM
[33]
  TGI: 7.51 µM
[34]
  TGI: > 100 µM
[35]
  TGI: 51.8 µM
[37]
  TGI: 41.1 µM
[38]
  TGI: > 100 µM
[39]
  TGI: > 100 µM
[40]
  TGI: 52.3 µM
[41]
  TGI: 65.6 µM
[42]
  TGI: 38.7 µM
[58]
  TGI: > 100 µM
[43]
  TGI: > 100 µM
[44]
  TGI: > 100 µM
[45]
  TGI: 62.2 µM
[46]
  TGI: 64.9 µM
[47]
  TGI: 62.9 µM
[59]
  TGI: > 100 µM
[50]
  TGI: 52.6 µM
[52]
  TGI: 96.3 µM
[53]
  TGI: 88.6 µM
[54]
  TGI: > 100 µM
[55]
  TGI: > 100 µM
[56]
  TGI: 36.7 µM
